Assay results as given in PubChem BioAssay AID1963985 (Molecular Pharmacology Branch, DTP, NCI, 2024).

System: 252836-082-R-J2-PDC tumor spheroids, viability
Test: Anticancer human tumor 252836-082-R-J2-PDC patient-derived head and neck squamous cell carcinoma cell line growth inhibition [PI3K]
Conditions: spheroids with HUVEC and MSC; for IC50: curve of first compound; for viability, T/C: stronger effect = lower value
Method in brief: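 Viability of mixed-cell spheroids was determined after exposure to pairwise combinations, one partner being inavolisib, alpelisib, duvelisib or copanlisib. Highest tested concentration matched clinical Cmax where known and 10 microM where not, descending in half-log steps.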
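Also: spheroids exposed to agents for seven days before readout.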
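For viability, T/C in this document: percent of vehicle DMSO control viability so 100% = untreated growth.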

## CC(C)NCC(C(=O)N1CCN(c2ncnc3c2C(C)CC3O)CC1)c1ccc(Cl)cc1 (configuration not stated) + CC(Nc1ccc2c(c1)OCCn1cc(N3C(=O)OCC3C(F)F)nc1-2)C(N)=O
Second compound 0.00316 µM
  IC50: 710 nM
Second compound 0.01 µM
  IC50: 749 nM
Second compound 0.0316 µM
  IC50: 631 nM
Second compound 0.1 µM
  IC50: 234 nM
Second compound 0.316 µM
  IC50: 173 nM
Second compound 1 µM
  IC50: < 31.6 nM
Second compound 0.00316 µM, first compound 0.0316 µM
  viability, T/C: 100%
Second compound 0.00316 µM, first compound 0.1 µM
  viability, T/C: 83%
Second compound 0.00316 µM, first compound 0.316 µM
  viability, T/C: 66.9%
Second compound 0.00316 µM, first compound 1 µM
  viability, T/C: 41.4%
Second compound 0.00316 µM, first compound 3.16 µM
  viability, T/C: 29.8%
Second compound 0.00316 µM, first compound 10 µM
  viability, T/C: 18.3%
Second compound 0.01 µM, first compound 0.0316 µM
  viability, T/C: 83.1%
Second compound 0.01 µM, first compound 0.1 µM
  viability, T/C: 88.3%
Second compound 0.01 µM, first compound 0.316 µM
  viability, T/C: 69.6%
Second compound 0.01 µM, first compound 1 µM
  viability, T/C: 42.5%
Second compound 0.01 µM, first compound 3.16 µM
  viability, T/C: 28.5%
Second compound 0.01 µM, first compound 10 µM
  viability, T/C: 20.1%
Second compound 0.0316 µM, first compound 0.0316 µM
  viability, T/C: 87.4%
Second compound 0.0316 µM, first compound 0.1 µM
  viability, T/C: 82.3%
Second compound 0.0316 µM, first compound 0.316 µM
  viability, T/C: 67%
Second compound 0.0316 µM, first compound 1 µM
  viability, T/C: 36.9%
Second compound 0.0316 µM, first compound 3.16 µM
  viability, T/C: 29.3%
Second compound 0.0316 µM, first compound 10 µM
  viability, T/C: 17.9%
Second compound 0.1 µM, first compound 0.0316 µM
  viability, T/C: 74.8%
Second compound 0.1 µM, first compound 0.1 µM
  viability, T/C: 56.4%
Second compound 0.1 µM, first compound 0.316 µM
  viability, T/C: 47.9%
Second compound 0.1 µM, first compound 1 µM
  viability, T/C: 35.8%
Second compound 0.1 µM, first compound 3.16 µM
  viability, T/C: 23.8%
Second compound 0.1 µM, first compound 10 µM
  viability, T/C: 15.7%
Second compound 0.316 µM, first compound 0.0316 µM
  viability, T/C: 54.9%
Second compound 0.316 µM, first compound 0.1 µM
  viability, T/C: 49.6%
Second compound 0.316 µM, first compound 0.316 µM
  viability, T/C: 49.4%
Second compound 0.316 µM, first compound 1 µM
  viability, T/C: 37.3%
Second compound 0.316 µM, first compound 3.16 µM
  viability, T/C: 25.4%
Second compound 0.316 µM, first compound 10 µM
  viability, T/C: 16.6%
Second compound 1 µM, first compound 0.0316 µM
  viability, T/C: 43%
Second compound 1 µM, first compound 0.1 µM
  viability, T/C: 42.2%
Second compound 1 µM, first compound 0.316 µM
  viability, T/C: 37.3%
Second compound 1 µM, first compound 1 µM
  viability, T/C: 29.2%
Second compound 1 µM, first compound 3.16 µM
  viability, T/C: 22.8%
Second compound 1 µM, first compound 10 µM
  viability, T/C: 14.7%
